Experimental data as given in patent US3932471A, “Azide” (priority 1973, dated 1976).
In brackets after ≈: the same amount, converted by molar mass.

Assays:
Type in all cases: in vivo
[1] = test system: Southern army worm (Prodenia eridania); assay: Southern army worm spray test (AW); conditions: 72 h; contact activity rating, 50% mortality, three days
Method: (§1) The compounds are evaluated for biological activity against the following representative pests: Mexican bean beetle (Epilachna varivestis), Southern army worm (Prodenia eridania), housefly (Musca domestica), bean aphid (Aphis fabae), and red spider mite (Tetranychus sp.). The last two pests are treated both by contact and systemic application.
(§2) For purposes of comparison, results obtained with known Compound 7472, Compound 7577, and aldicarb are included in the test results. Each test compound is rated using the following scale:
Southern Army Worm Spray Test
Paired fully expanded primary leaves excised from Scarlet runner bean plants are maintained in plastic tubes containing water and sprayed with the test formulation prepared as described in Example 15. After the spray deposit on the leaves is dry, the paired leaves are separated. One leaf is placed onto 1.5 percent water agar and infested with 10 newly hatched Southern army worm larvae. The covered test receptacle is held at 72° F for three days and then the percent mortality is determined. Results of this test are shown in Table 7 as AW (Southern army worm spray test).

[2] = test system: housefly (Musca domestica); assay: Housefly spray test (HF); conditions: 72 h, contact activity rating, 50% mortality, three days
Method: as §1, §2
This test determines the insecticidal activity of the compound being tested against adult houseflies, Musca domestica. Stock formulations containing 500 ppm of each test chemical are prepared using the procedure described in Example 15 and are diluted to obtain the appropriate lower concentrations.
Ten adult flies are placed in a cylindrical screen cage 11/2 by 4 inches fabricated from 20-mesh stainless steel screening and are sprayed with 50 ml of the stock or diluted formulation. The flies are supplied food and drink from a dextrose solution by draping a paper wick over the outside of the screen cylinder and are able to feed and drink ad libitum. Percent mortality obtained is determined three days after treatment. Results of this test are shown in Table 7 as HF (housefly spray test).

[3] = test system: root-knot nematodes (Meloidogyne spp.); assay: Root-knot nematocide test
Method: Root-knot Nematocide Test
This test is an evaluation of the effectiveness of the compound being tested against infection by root-knot nematodes (Meloidogyne spp.).
Composted greenhouse soil, diluted by one-third with clean washed sand, is infected with about two grams of knotted or galled tomato roots per pot. Treatment is accomplished by applying 25 ml of the formulated compound onto the infested soil. The formulation contains 0.056 g of Compound 7960, 1.0 ml stock emulsifier solution (0.25% Triton X-155 in acetone by volume), and 24.0 ml deionized water, giving a concentration of 2240 ppm. Lower concentrations are achieved by dilution.
After treatment with the test formulation, the soil, inoculum, and formulation are thoroughly mixed, returned to the pot, and the mixture incubated for seven days at 20° C and constant moisture. After incubation, two seedlings of Rutgers tomato transplants and three garden nasturtium (Nasturtium spp.) seeds are set in each pot. Roots are removed from the soil after three weeks of growth and rated for gall (root-knot nematode infection) formation. Nasturtium roots are evaluated only when necrosis of the tomato host has occurred. […] Each of the root systems is rated separately and the average is multiplied by 10 and subtracted from 100 to give percent nematode control.

CNC(=O)ON=C(C)C(C)(C)C [Compound 7472, 2,2-dimethyl-3-methylcarbamyloximinobutane, reference compound]
LC50 [1]: > 500 µg/mL
LC50 [2]: > 500 µg/mL

CNC(=O)ON=C(CSCC(=O)OC)C(C)(C)C [Compound 7503, 1-carbomethoxymethylthio-3,3-dimethyl-2-methylcarbamyloximinobutane]
LC50 [1]: > 500 µg/mL
LC50 [2]: > 500 µg/mL

CNC(=O)ON=C(C)C(C)(C)SC [Compound 7577, 3-methyl-2-methylcarbamyloximino-3-methylthiobutane, reference compound]
LC50 [1]: > 500 µg/mL
LC50 [2]: > 500 µg/mL

CNC(=O)ON=C(C)CSC [Compound 7603, 2-methylcarbamyloximino-1-methylthiopropane]
LC50 [1]: > 500 µg/mL
LC50 [2]: 16 to 32 µg/mL (≈ 90.8 to 182 µM)

CNC(=O)ON=C(CSc1ccccc1)C(C)(C)C [Compound 7718, 3,3-dimethyl-2-methylcarbamyloximino-1-phenylthiobutane]
LC50 [1]: > 500 µg/mL
LC50 [2]: 250 to 500 µg/mL (≈ 892 to 1780 µM)

CCNC(=O)ON=C(CSC)C(C)(C)C [Compound 7797, 2-ethylcarbamyloximino-3,3-dimethyl-1-methylthiobutane]
LC50 [1]: > 500 µg/mL
LC50 [2]: 64 to 128 µg/mL (≈ 275 to 551 µM)

C=CCNC(=O)ON=C(CSC)C(C)(C)C [Compound 7799, 2-allylcarbamyloximino-3,3-dimethyl-1-methylthiobutane]
LC50 [1]: > 500 µg/mL
LC50 [2]: 128 to 250 µg/mL (≈ 524 to 1020 µM)

CNC(=O)ON=C(C[S+](C)[O-])C(C)(C)C (centres unmarked) [Compound 7804, 3,3-dimethyl-2-methylcarbamyloximino-1-methylsulfinylbutane]
LC50 [1]: 128 to 250 µg/mL (≈ 546 to 1070 µM)
LC50 [2]: 128 to 250 µg/mL (≈ 546 to 1070 µM)

CSCC(=NOC(N)=O)C(C)(C)C [Compound 7859, 2-carbamyloximino-3,3-dimethyl-1-methylthiobutane]
LC50 [1]: > 500 µg/mL
LC50 [2]: > 500 µg/mL

CCSCC(=NOC(=O)NC)C(C)(C)C [Compound 7862, 1-ethylthio-3,3-dimethyl-2-methylcarbamyloximinobutane]
LC50 [1]: > 500 µg/mL
LC50 [2]: 64 to 128 µg/mL (≈ 275 to 551 µM)

CNC(=O)ON=C(CSC)C(C)C [Compound 7867, 3-methyl-2-methylcarbamyloximino-1-methylthiobutane]
LC50 [1]: > 500 µg/mL
LC50 [2]: 64 to 128 µg/mL (≈ 313 to 627 µM)

CSCC(=NOC(=O)N(C)C)C(C)(C)C [Compound 7871, 3,3-dimethyl-2-dimethylcarbamyloximino-1-methylthiobutane]
LC50 [1]: > 500 µg/mL
LC50 [2]: > 500 µg/mL

C=CCSCC(=NOC(=O)NC)C(C)(C)C [Compound 7897, 1-allylthio-3,3-dimethyl-2-methylcarbamyloximinobutane]
LC50 [1]: > 500 µg/mL
LC50 [2]: 64 to 128 µg/mL (≈ 262 to 524 µM)

CCC(CSC)=NOC(=O)NC [Compound 7916, 2-methylcarbamyloximino-1-methylthiobutane]
LC50 [1]: > 500 µg/mL
LC50 [2]: 64 to 128 µg/mL (≈ 336 to 673 µM)

CCCC(C)(C)C(CSC)=NOC(=O)NC [Compound 7934, 3,3-dimethyl-2-methylcarbamyloximino-1-methylthiohexane]
LC50 [1]: > 500 µg/mL
LC50 [2]: > 500 µg/mL

CNC(=O)ON=C(CSC)C(C)(C)SC [Compound 7960, 1,3-bis(methylthio)-3-methyl-2-methylcarbamyloximinobutane]
LC50 [1]: > 500 µg/mL
LC50 [2]: > 500 µg/mL
Percent Control (nematode) ([3]; 0.5 lb/A): 97%
Percent Control (nematode) ([3]; 1 lb/A): 100%
Percent Control (nematode) ([3]; 2 lb/A): 100%
Percent Control (nematode) ([3]; 4 lb/A): 100%
Percent Control (nematode) ([3]; 8 lb/A): 100%

CNC(=O)ON=C(CSC#N)C(C)(C)C [Compound 7991, 3,3-dimethyl-2-methylcarbamyloximino-1-thiocyanatobutane]
LC50 [1]: > 500 µg/mL
LC50 [2]: > 500 µg/mL

CNC(=O)ON=C(C(C)SC)C(C)(C)C (centres unmarked) [Compound 8071, 2,2-dimethyl-3-methylcarbamyloximino-4-methylthiopentane]
LC50 [1]: > 500 µg/mL
LC50 [2]: > 500 µg/mL

CNC(=O)ON=C(CCSC)C(C)(C)C [Compound 8111, 4,4-dimethyl-3-methylcarbamyloximino-1-methylthiopentane]
LC50 [1]: > 500 µg/mL
LC50 [2]: 250 to 500 µg/mL (≈ 1080 to 2150 µM)

CNC(=O)ON=C(C1SCCS1)C(C)(C)C [Compound 8423, 1,1-ethylenedithio-3,3-dimethyl-2-methylcarbamyloximinobutane]
Percent Control (nematode) ([3]; 2 lb/A): 60%
Percent Control (nematode) ([3]; 4 lb/A): 90%
Percent Control (nematode) ([3]; 8 lb/A): 100%

CNC(=O)ON=C(CSC)C1CC1 [Compound 8465, 1-cyclopropyl-1-methylcarbamyloximino-2-methylthioethane]
LC50 [1]: 250 to 500 µg/mL (≈ 1240 to 2470 µM)
LC50 [2]: 128 to 250 µg/mL (≈ 633 to 1240 µM)

CNC(=O)ON=C(CSC)CC(C)(C)C [Compound 8519, 4,4-dimethyl-2-methylcarbamyloximino-1-methylthiopentane]
LC50 [1]: > 500 µg/mL
LC50 [2]: > 500 µg/mL

CCC(C)(C)C(CSC)=NOC(=O)NC [Compound 8520, 3,3-dimethyl-2-methylcarbamyloximino-1-methylthiopentane]
LC50 [1]: > 500 µg/mL
LC50 [2]: > 500 µg/mL

CNC(=O)ON=C(CS(C)(=O)=O)C(C)(C)C [Compound 8868, 3,3-dimethyl-2-methylcarbamyloximino-1-methylsulfonylbutane]
LC50 [1]: > 500 µg/mL
LC50 [2]: 128 to 250 µg/mL (≈ 511 to 999 µM)

CNC(=O)ON=C(CN=[N+]=[N-])C(C)(C)C [Compound 8997, 1-azido-3,3-dimethyl-2-methylcarbamyloximinobutane]
LC50 [1]: 128 to 250 µg/mL (≈ 600 to 1170 µM)
LC50 [2]: 128 to 250 µg/mL (≈ 600 to 1170 µM)
Percent Control (nematode) ([3]; 2 lb/A): 0%
Percent Control (nematode) ([3]; 4 lb/A): 100%
Percent Control (nematode) ([3]; 8 lb/A): 100%

CNC(=O)ON=C(CSCCSC)C(C)(C)C [Compound 9026, 3,3-dimethyl-2-methylcarbamyloximino-1-(2-methylthioethylthio)-butane]
LC50 [1]: > 500 µg/mL
LC50 [2]: > 500 µg/mL
Percent Control (nematode) ([3]; 1 lb/A): 30%
Percent Control (nematode) ([3]; 2 lb/A): 60%
Percent Control (nematode) ([3]; 4 lb/A): 70%
Percent Control (nematode) ([3]; 8 lb/A): 90%

CCCC(CSC)=NOC(=O)NC [Compound 9057, 2-methylcarbamyloximino-1-methylthiopentane]
LC50 [1]: > 500 µg/mL
LC50 [2]: 250 to 500 µg/mL (≈ 1220 to 2450 µM)

CNC(=O)ON=C(CSC)CC(C)C [Compound 9058, 4-methyl-2-methylcarbamyloximino-1-methylthiopentane]
LC50 [1]: > 500 µg/mL
LC50 [2]: 250 to 500 µg/mL (≈ 1150 to 2290 µM)

CNC(=O)O/N=C/C(C)(C)SC [aldicarb, reference compound]
LC50 [1]: > 500 µg/mL
LC50 [2]: 4 to 8 µg/mL (≈ 21 to 42 µM)
